Measurements reported in publication PMC9090415, “Discovery of small molecule inhibitors of Plasmodium falciparum apicoplast DNA polymerase” (Journal of Enzyme Inhibition and Medicinal Chemistry, 2022).
Like-named read-outs stand apart in the source and are kept apart here.

Target: P. falciparum apicoplast DNA polymerase (Pf-apPOL) (Plasmodium falciparum, UniProt Q8ILY1)
Assay: Fluorescence-based high-throughput DNA polymerase assay (molecular beacon), primary screen and dose-response
Type: biochemical
Settings: for DNA Pol: 90 min, 10 µM; for % inhibition apPOL 180' 2.5 / % inhibition apPOL 180' 5 / % inhibition apPOL 180' 10 / % inhibition apPOL 180' 20 / % inhibition apPOL 180' 40 / % inhibition apPOL 180' 80: read at 180'
Method in brief: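 Single-point screening used 10 µM compound with 20 nM polymerase, 20 nM hairpin substrate and 6 µM dNTPs for 90 min at 25 °C. Confirmatory titrations (2.5–80 µM) followed fluorescence at three times, and IC50 was derived from a fit including a cooperativity term n.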

[1] = "DNA Pol" of the 186 hits list (screen value)

P. falciparum apicoplast DNA polymerase (Pf-apPOL), sequence (Q8ILY1 entry or part of it): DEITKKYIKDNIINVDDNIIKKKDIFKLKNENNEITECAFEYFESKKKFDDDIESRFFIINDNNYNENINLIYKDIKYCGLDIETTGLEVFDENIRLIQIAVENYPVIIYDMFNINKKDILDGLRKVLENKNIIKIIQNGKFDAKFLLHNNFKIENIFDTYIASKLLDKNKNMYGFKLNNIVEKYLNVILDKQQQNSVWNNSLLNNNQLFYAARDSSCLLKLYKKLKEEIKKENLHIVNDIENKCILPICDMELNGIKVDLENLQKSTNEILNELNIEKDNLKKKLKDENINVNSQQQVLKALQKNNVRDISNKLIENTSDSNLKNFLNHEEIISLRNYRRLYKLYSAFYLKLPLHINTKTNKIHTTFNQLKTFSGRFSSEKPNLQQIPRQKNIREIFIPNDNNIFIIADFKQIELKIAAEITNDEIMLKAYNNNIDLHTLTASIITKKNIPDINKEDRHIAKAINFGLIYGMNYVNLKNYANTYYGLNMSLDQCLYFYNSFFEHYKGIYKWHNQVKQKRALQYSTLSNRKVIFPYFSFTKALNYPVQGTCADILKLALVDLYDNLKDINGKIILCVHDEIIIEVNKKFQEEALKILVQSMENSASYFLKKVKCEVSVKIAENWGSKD

## Cc1ccc(NC(=O)Cn2ccc3c(=O)[nH]ccc32)cc1F [Molecule 48, O=C(Cn1ccc2c1cc[nH]c2=O)Nc1ccc(c(c1)F)C]
[1]
  DNA Pol: 27
DRC-1, concentration 2.5
  % inhibition Apo pol 10': 0.4313%
  % inhibition Apol 90': -2.985%
  % inhibition apPOL 180': -5.068%
DRC-1, concentration 5
  % inhibition Apo pol 10': 4.695%
  % inhibition Apol 90': -1.632%
  % inhibition apPOL 180': -4.79%
DRC-1, concentration 10
  % inhibition Apo pol 10': 32.4815%
  % inhibition Apol 90': 21.1063%
  % inhibition apPOL 180': 10.5149%
DRC-1, concentration 20
  % inhibition Apo pol 10': 59.9779%
  % inhibition Apol 90': 47.267%
  % inhibition apPOL 180': 31.5724%
DRC-1, concentration 40
  % inhibition Apo pol 10': 70.0783%
  % inhibition Apol 90': 60.3661%
  % inhibition apPOL 180': 45.3289%
DRC-1, concentration 80
  % inhibition Apo pol 10': 79.5186%
  % inhibition Apol 90': 79.6602%
  % inhibition apPOL 180': 73.7679%
DRC-2, concentration 2.5
  % inhibition Apo pol 5': -5.29%
  % inhibition Apol 40': -4.56%
  % inhibition ApPOL 90': -6.53%
  % inhibition apPOL 180': -10%
DRC-2, concentration 5
  % inhibition Apo pol 5': 3%
  % inhibition Apol 40': 4%
  % inhibition ApPOL 90': 2.25%
  % inhibition apPOL 180': -4%
DRC-2, concentration 10
  % inhibition Apo pol 5': 22%
  % inhibition Apol 40': 23%
  % inhibition ApPOL 90': 21%
  % inhibition apPOL 180': 7%
DRC-2, concentration 20
  % inhibition Apo pol 5': 44%
  % inhibition Apol 40': 57%
  % inhibition ApPOL 90': 56%
  % inhibition apPOL 180': 49%
DRC-2, concentration 40
  % inhibition Apo pol 5': 46%
  % inhibition Apol 40': 65%
  % inhibition ApPOL 90': 67%
  % inhibition apPOL 180': 65%
DRC-2, concentration 80
  % inhibition Apo pol 5': 38%
  % inhibition Apol 40': 62%
  % inhibition ApPOL 90': 67%
  % inhibition apPOL 180': 69%
Primary screen value, DNA Pol
  DNA Pol: 27

## Nc1cc(Oc2ccc(O)c(N)c2)ccc1O [KU0034728]
186 hits, DNA Pol (screen value), unit not given
  DNA Pol: 65
'DNA Pol' (screen value), unit not given
  DNA Pol: 65
DRC-1, read at 10', concentration 2.5
  % inhibition Apo pol 10' 2.5: 19.846%
DRC-1, read at 10', concentration 5
  % inhibition Apo pol 10' 5: 31.2811%
DRC-1, read at 10', concentration 10
  % inhibition Apo pol 10' 10: 55.4709%
DRC-1, read at 10', concentration 20
  % inhibition Apo pol 10' 20: 70.5604%
DRC-1, read at 10', concentration 40
  % inhibition Apo pol 10' 40: 80.3003%
DRC-1, read at 10', concentration 80
  % inhibition Apo pol 10' 80: 87.2374%
DRC-1, read at 90', concentration 2.5
  % inhibition Apol 90' 2.5: 8.186%
DRC-1, read at 90', concentration 5
  % inhibition Apol 90' 5: 16.785%
DRC-1, read at 90', concentration 10
  % inhibition Apol 90' 10: 34.847%
DRC-1, read at 90', concentration 20
  % inhibition Apol 90' 20: 48.9946%
DRC-1, read at 90', concentration 40
  % inhibition Apol 90' 40: 59.758%
DRC-1, read at 90', concentration 80
  % inhibition Apol 90' 80: 68.9049%
DRC-1, concentration 2.5
  % inhibition apPOL 180' 2.5: 2.338%
DRC-1, concentration 5
  % inhibition apPOL 180' 5: 7.101%
DRC-1, concentration 10
  % inhibition apPOL 180' 10: 22.2951%
DRC-1, concentration 20
  % inhibition apPOL 180' 20: 34.6321%
DRC-1, concentration 40
  % inhibition apPOL 180' 40: 46.6312%
DRC-1, concentration 80
  % inhibition apPOL 180' 80: 55.3391%
DRC-2, concentration 5
  % inhibition Apo pol 5': 43%
  % inhibition apPOL 180' 5: 26%
DRC-2, concentration 20
  % inhibition Apol 40': 65%
  % inhibition ApPOL 90': 65%
  % inhibition apPOL 180' 20: 59%
DRC-2, concentration 40
  % inhibition Apol 40': 74%
  % inhibition apPOL 180': 74%
  % inhibition apPOL 180' 40: 74%
DRC-2, concentration 2.5
  % inhibition ApPOL 90': 43%
  % inhibition apPOL 180' 2.5: 31%
DRC-2, concentration 10
  % inhibition apPOL 180': 43%
  % inhibition apPOL 180' 10: 43%
DRC-2, read at 5', concentration 2.5
  % inhibition Apo pol 5' 2.5: 42%
DRC-2, read at 5', concentration 5
  % inhibition Apo pol 5' 5: 43%
DRC-2, read at 5', concentration 10
  % inhibition Apo pol 5' 10: 50%
DRC-2, read at 5', concentration 20
  % inhibition Apo pol 5' 20: 52%
DRC-2, read at 5', concentration 40
  % inhibition Apo pol 5' 40: 56%
DRC-2, read at 5', concentration 80
  % inhibition Apo pol 5' 80: 30%
DRC-2, read at 40', concentration 2.5
  % inhibition Apol 40' 2.5: 47%
DRC-2, read at 40', concentration 5
  % inhibition Apol 40' 5: 44%
DRC-2, read at 40', concentration 10
  % inhibition Apol 40' 10: 57%
DRC-2, read at 40', concentration 20
  % inhibition Apol 40' 20: 65%
DRC-2, read at 40', concentration 40
  % inhibition Apol 40' 40: 74%
DRC-2, read at 40', concentration 80
  % inhibition Apol 40' 80: 64%
DRC-2, read at 90', concentration 2.5
  % inhibition ApPOL 90' 2.5: 43%
DRC-2, read at 90', concentration 5
  % inhibition ApPOL 90' 5: 40%
DRC-2, read at 90', concentration 10
  % inhibition ApPOL 90' 10: 55%
DRC-2, read at 90', concentration 20
  % inhibition ApPOL 90' 20: 65%
DRC-2, read at 90', concentration 40
  % inhibition ApPOL 90' 40: 76%
DRC-2, read at 90', concentration 80
  % inhibition ApPOL 90' 80: 71%
DRC-2, concentration 80
  % inhibition apPOL 180' 80: 75%

## O=C(O)CCS(=O)(=O)c1ccc(-c2ccc(S(=O)(=O)CCC(=O)O)cc2)cc1 [Molecule 32, OC(=O)CCS(=O)(=O)c1ccc(cc1)c1ccc(cc1)S(=O)(=O)CCC(=O)O]
[1]
  DNA Pol: 40
DRC-1, concentration 2.5
  % inhibition Apo pol 10': 22.5031%
  % inhibition Apol 90': 7.663%
  % inhibition apPOL 180': -2.177%
DRC-1, concentration 5
  % inhibition Apo pol 10': 45.6696%
  % inhibition Apol 90': 20.8234%
  % inhibition apPOL 180': 7.502%
DRC-1, concentration 10
  % inhibition Apo pol 10': 64.9587%
  % inhibition Apol 90': 43.1445%
  % inhibition apPOL 180': 30.5046%
DRC-1, concentration 20
  % inhibition Apo pol 10': 75.2971%
  % inhibition Apol 90': 59.5248%
  % inhibition apPOL 180': 50.8957%
DRC-1, concentration 40
  % inhibition Apo pol 10': 82.8671%
  % inhibition Apol 90': 71.1176%
  % inhibition apPOL 180': 64.8259%
DRC-1, concentration 80
  % inhibition Apo pol 10': 87.3536%
  % inhibition Apol 90': 79.0648%
  % inhibition apPOL 180': 73.8924%
DRC-2, concentration 2.5
  % inhibition Apo pol 5': 15%
  % inhibition Apol 40': 10%
  % inhibition ApPOL 90': 5.57%
  % inhibition apPOL 180': -4.51%
DRC-2, concentration 5
  % inhibition Apo pol 5': 24%
  % inhibition Apol 40': 15%
  % inhibition ApPOL 90': 8%
  % inhibition apPOL 180': -2.16%
DRC-2, concentration 10
  % inhibition Apo pol 5': 39%
  % inhibition Apol 40': 31%
  % inhibition ApPOL 90': 26%
  % inhibition apPOL 180': 17%
DRC-2, concentration 20
  % inhibition Apo pol 5': 43%
  % inhibition Apol 40': 40%
  % inhibition ApPOL 90': 37%
  % inhibition apPOL 180': 32%
DRC-2, concentration 40
  % inhibition Apo pol 5': 49%
  % inhibition Apol 40': 53%
  % inhibition ApPOL 90': 52%
  % inhibition apPOL 180': 49%
DRC-2, concentration 80
  % inhibition Apo pol 5': 51%
  % inhibition Apol 40': 63%
  % inhibition ApPOL 90': 65%
  % inhibition apPOL 180': 64%
Primary screen value, DNA Pol
  DNA Pol: 40

## CCOc1nc2cccc(C(=O)OC(C)OC(=O)OC3CCCCC3)c2n1Cc1ccc(-c2ccccc2-c2nnn[nH]2)cc1 (stereo not drawn) [Molecule 94]
read-out: IC50 Pf-apPOL, Table 2
  IC50: 7.6 ± 0.6 µM
Supplemental file 2, sheet IC50 nontoxic compounds, Pf-apPOL
  IC50: 7.66 µM
